According to the supplement of paper PMC11451515:

Assays:
Conditions in all cases: 48 h
NOMO1 [1] = test: AUC of viability dose-response curve (% viability x log10 dose units); higher = less sensitive
In short: (§1)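 Library compounds in DMSO were applied for 48 h at 37°C at 11 threefold doses (47 μM to 0.79 nM) to medium-adapted leukemia cells in 1536-well plates holding 500 or 1000 cells/well. Luminescence from CellTiter-Glo One was normalised plate by plate against DMSO and cell-free wells. Area under the curve came from trapezoidal integration of a log-logistic fit, after scaling curves that rose above full viability and discarding those that failed quality control. The fit had four parameters and used log10 doses.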

P12-Ichikawa [2] = test: as above
In short: as §1

SEM cells [3] = test: as above
In short: as §1

SEM cells [4] = test: cell viability relative to DMSO control; higher = less cytotoxic
In short: (§2)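 NOMO1 or SEM cells were plated at 500 cells/well and P12-Ichikawa cells at 1000 cells/well in 1536-well plates (5 μl), after each leukemia line had been adapted for at least four passages in each medium. Pin dosing delivered library compounds in DMSO at 11 threefold concentrations, 47 μM to 0.79 nM. CellTiter-Glo One luminescence was read after 48 h at 37°C. Viability is reported as a per-plate percentage of DMSO wells, with cell-free wells as background.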

NOMO1 [5] = test: as above
In short: as §2

P12-Ichikawa [6] = test: as above
In short: as §2

N#Cc1ccc(COC[C@H]2O[C@@H](n3c(NCc4ccc(Cl)c(Cl)c4)nc4c(N)ncnc43)[C@H](O)[C@@H]2O)cc1
AUC of viability dose-response curve
Conditions | NOMO1 [1] | P12-Ichikawa [2] | SEM cells [3]
HPLM + 10% dialyzed FBS | 420 | 458 | 465
RPMI 5 mM glucose + 10% FBS | 428 | 414 | 411
RPMI 5 mM glucose + 10% dialyzed FBS | 420 | 415 | 431

NC1=C(Cl)C(=CC=N1)OC2=C(F)C=C(NC(=O)\C3=C\N\C=C(C3=O)\C4=CC=C(F)C=C4)C=C2
AUC of viability dose-response curve
Conditions | NOMO1 [1] | P12-Ichikawa [2] | SEM cells [3]
HPLM + 10% dialyzed FBS | 441 | 451 | 312
RPMI 5 mM glucose + 10% FBS | 452 | 448 | 287
RPMI 5 mM glucose + 10% dialyzed FBS | 453 | 447 | 247

cell viability [%], SEM cells [4]
Conditions | HPLM + 10% dialyzed FBS | RPMI 5 mM glucose + 10% FBS | RPMI 5 mM glucose + 10% dialyzed FBS
0.000781 µM | 118 | 129 | 140
0.00234 µM | 107 | 113 | 103
0.00702 µM | 121 | 115 | 115
0.0211 µM | 72.2 | 79.2 | 65.7
0.0632 µM | 92.6 | 76 | 60
0.19 µM | 72.6 | 70.5 | 57.7
0.569 µM | 64.4 | 65.3 | 59.1
1.71 µM | 64 | 76.2 | 59.5
5.12 µM | 58.8 | 49 | 57.9
15.4 µM | 64.1 | 46.7 | 58.5
46.1 µM | 11.5 | 3.66 | 4.6

OC[C@H]1O[C@@H](OCCc2ccc(O)cc2)[C@H](O)[C@@H](O)[C@@H]1O
AUC of viability dose-response curve
Conditions | NOMO1 [1] | P12-Ichikawa [2] | SEM cells [3]
HPLM + 10% dialyzed FBS | 459 | 435 | 447
RPMI 5 mM glucose + 10% FBS | 458 | 456 | 432
RPMI 5 mM glucose + 10% dialyzed FBS | 464 | 461 | 419

O=C1NC(=O)/C(=C\c2ccc(-c3ccc(F)cc3)o2)S1
AUC of viability dose-response curve
Conditions | NOMO1 [1] | P12-Ichikawa [2] | SEM cells [3]
HPLM + 10% dialyzed FBS | 415 | 436 | 455
RPMI 5 mM glucose + 10% FBS | 462 | 445 | 462
RPMI 5 mM glucose + 10% dialyzed FBS | 444 | 455 | 457

O=C1[C@H](Cc2ccc(O)cc2)N2C(=O)CCN(C(=O)NCc3ccccc3)[C@H]2CN1Cc1cccc2ccccc12
AUC of viability dose-response curve
Conditions | HPLM + 10% dialyzed FBS | RPMI 5 mM glucose + 10% FBS | RPMI 5 mM glucose + 10% dialyzed FBS
P12-Ichikawa [2] | 404 | 375 | 361
SEM cells [3] | 334 | 384 | 363

cell viability [%]
Conditions | NOMO1 [5] | P12-Ichikawa [6] | SEM cells [4]
HPLM + 10% dialyzed FBS, 0.000781 µM | 86.9 | 86.7 | 51.6
HPLM + 10% dialyzed FBS, 0.00234 µM | 82.6 | 90.8 | 86.6
HPLM + 10% dialyzed FBS, 0.00702 µM | 88.9 | 85.3 | 103
HPLM + 10% dialyzed FBS, 0.0211 µM | 97.3 | 89.4 | 93.6
HPLM + 10% dialyzed FBS, 0.0632 µM | 92.1 | 87.9 | 77
HPLM + 10% dialyzed FBS, 0.19 µM | 78.6 | 88.1 | 74.3
HPLM + 10% dialyzed FBS, 0.569 µM | 86.3 | 85.4 | 77.4
HPLM + 10% dialyzed FBS, 1.71 µM | 85 | 85.5 | 62.8
HPLM + 10% dialyzed FBS, 5.12 µM | 74.9 | 91.2 | 64.8
HPLM + 10% dialyzed FBS, 15.4 µM | 18.3 | 47.9 | 12.3
HPLM + 10% dialyzed FBS, 46.1 µM | 74 | 85.8 | 51.3
RPMI 5 mM glucose + 10% FBS, 0.000781 µM | 81.7 | 76.6 | 64.9
RPMI 5 mM glucose + 10% FBS, 0.00234 µM | 78.7 | 84.4 | 108
RPMI 5 mM glucose + 10% FBS, 0.00702 µM | 86.9 | 76.3 | 99.7
RPMI 5 mM glucose + 10% FBS, 0.0211 µM | 81 | 83 | 98.1
RPMI 5 mM glucose + 10% FBS, 0.0632 µM | 83.1 | 88.6 | 76.7
RPMI 5 mM glucose + 10% FBS, 0.19 µM | 73.9 | 87.7 | 93.6
RPMI 5 mM glucose + 10% FBS, 0.569 µM | 83.7 | 83 | 86.2
RPMI 5 mM glucose + 10% FBS, 1.71 µM | 73.5 | 74 | 83.9
RPMI 5 mM glucose + 10% FBS, 5.12 µM | 73.1 | 84.1 | 78.6
RPMI 5 mM glucose + 10% FBS, 15.4 µM | 10.6 | 35 | 15.2
RPMI 5 mM glucose + 10% FBS, 46.1 µM | 81.1 | 84.2 | 65.6
RPMI 5 mM glucose + 10% dialyzed FBS, 0.000781 µM | 76.7 | 77.4 | 55.1
RPMI 5 mM glucose + 10% dialyzed FBS, 0.00234 µM | 89.9 | 78.2 | 101
RPMI 5 mM glucose + 10% dialyzed FBS, 0.00702 µM | 89.5 | 80.4 | 94.7
RPMI 5 mM glucose + 10% dialyzed FBS, 0.0211 µM | 104 | 79.5 | 95
RPMI 5 mM glucose + 10% dialyzed FBS, 0.0632 µM | 92.5 | 85 | 83
RPMI 5 mM glucose + 10% dialyzed FBS, 0.19 µM | 89.5 | 82.1 | 93.3
RPMI 5 mM glucose + 10% dialyzed FBS, 0.569 µM | 84.2 | 77.3 | 74.1
RPMI 5 mM glucose + 10% dialyzed FBS, 1.71 µM | 82.7 | 75.4 | 73.8
RPMI 5 mM glucose + 10% dialyzed FBS, 5.12 µM | 79.2 | 81.1 | 73.3
RPMI 5 mM glucose + 10% dialyzed FBS, 15.4 µM | 13.7 | 33.2 | 15.3
RPMI 5 mM glucose + 10% dialyzed FBS, 46.1 µM | 82.8 | 72.5 | 63.2

COc1ccc(-c2ccc3c(N4CCOCC4)nc(N4C[C@@H](C)O[C@@H](C)C4)nc3n2)cc1CO
AUC of viability dose-response curve
Conditions | NOMO1 [1] | P12-Ichikawa [2] | SEM cells [3]
HPLM + 10% dialyzed FBS | 304 | 336 | 343
RPMI 5 mM glucose + 10% FBS | 372 | 301 | 342
RPMI 5 mM glucose + 10% dialyzed FBS | 353 | 326 | 356

O=C(/C=C\n1cnc(-c2cc(C(F)(F)F)cc(C(F)(F)F)c2)n1)NNc1cnccn1
AUC of viability dose-response curve
Conditions | HPLM + 10% dialyzed FBS | RPMI 5 mM glucose + 10% FBS | RPMI 5 mM glucose + 10% dialyzed FBS
P12-Ichikawa [2] | 302 | 296 | 295
SEM cells [3] | 310 | 301 | 309

CCNC(=O)C[C@H]1/N=C(/C2=CC=C(Cl)C=C2)C3=CC(=CC=C3[N]4C(=NN=C14)C)OC
AUC of viability dose-response curve
Conditions | NOMO1 [1] | P12-Ichikawa [2] | SEM cells [3]
HPLM + 10% dialyzed FBS | 465 | 464 | 442
RPMI 5 mM glucose + 10% FBS | 461 | 460 | 450
RPMI 5 mM glucose + 10% dialyzed FBS | 445 | 462 | 440

SEM cells [4], RPMI 5 mM glucose + 10% dialyzed FBS
Conditions | cell viability [%]
0.000781 µM | 122
0.00234 µM | 124
0.00702 µM | 138
0.0211 µM | 119
0.0632 µM | 141
0.19 µM | 117
0.569 µM | 155
1.71 µM | 122
5.12 µM | 108
15.4 µM | 99.4
46.1 µM | 22.2

NC/1=N/C(=O)C2=C(N1)[N](C=N2)[C@@H]3C[C@H](O)[C@@H](CO)C3=C
AUC of viability dose-response curve
Conditions | NOMO1 [1] | P12-Ichikawa [2] | SEM cells [3]
HPLM + 10% dialyzed FBS | 385 | 351 | 248
RPMI 5 mM glucose + 10% FBS | 423 | 342 | 272
RPMI 5 mM glucose + 10% dialyzed FBS | 378 | 331 | 200
